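48-hour exposure; five concentrations; linearly interpolated endpoints. The concentration for full growth arrest is given as TGI.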
Tests used:
Assay in all cases: DTP human tumour cell line panel, 48 h
[1] = tested on: UACC-257 melanoma
[2] = tested on: NCI-H522 lung
[3] = tested on: OVCAR-4 ovarian
[4] = tested on: MCF7 breast
[5] = tested on: SK-OV-3 ovarian
[6] = tested on: ACHN renal
[7] = tested on: SW-620 colon
[8] = tested on: HS 578T breast
[9] = tested on: SF-268 CNS
[10] = tested on: UO-31 renal
[11] = tested on: M14 melanoma
[12] = tested on: SK-MEL-2 melanoma
[13] = tested on: HCT-15 colon
[14] = tested on: IGROV1 ovarian
[15] = tested on: LOX IMVI melanoma
[16] = tested on: OVCAR-3 ovarian
[17] = tested on: KM12 colon
[18] = tested on: BT-549 breast
[19] = tested on: SNB-19 CNS
[20] = tested on: DU-145 prostate
[21] = tested on: SNB-75 CNS
[22] = tested on: U251 CNS
[23] = tested on: MDA-MB-231 breast
[24] = tested on: HOP-92 NSCLC
[25] = tested on: TK-10 renal
[26] = tested on: SF-295 CNS
[27] = tested on: NCI/ADR-RES ovarian
[28] = tested on: RXF 393 renal
[29] = tested on: MDA-MB-435
[30] = tested on: HCC-2998 colon
[31] = tested on: SR leukemia
[32] = tested on: A498 renal
[33] = tested on: SF-539 CNS
[34] = tested on: MALME-3M melanoma
[35] = tested on: SK-MEL-28 melanoma
[36] = tested on: EKVX NSCLC
[37] = tested on: SN12C renal
[38] = tested on: HOP-62 NSCLC
[39] = tested on: SK-MEL-5 melanoma
[40] = tested on: NCI-H226 lung
[41] = tested on: K-562 leukemia
[42] = tested on: NCI-H23 lung
[43] = tested on: CAKI-1 renal
[44] = tested on: OVCAR-8 ovarian
[45] = tested on: MOLT-4 leukemia
[46] = tested on: COLO 205 colon
[47] = tested on: MDA-N
[48] = tested on: A549 NSCLC
[49] = tested on: 786-0 renal
[50] = tested on: HT29 colon
[51] = tested on: UACC-62 melanoma
[52] = tested on: HCT-116 colon
[53] = tested on: OVCAR-5 ovarian
[54] = tested on: NCI-H460 lung
[55] = tested on: T-47D breast
[56] = tested on: CCRF-CEM leukemia
[57] = tested on: HL-60(TB) leukemia
[58] = tested on: RPMI-8226 leukemia
[59] = tested on: PC-3 prostate

Measured: TGI

COc1cc(-c2nc3nc(N4CCN(C)CC4)ccc3[nH]2)c(OC)c2[nH]c(CO)nc12
99.1 µM: [12]
not listed: [56] | [57] | [58] | [59]
> 100 µM: all other assays above

NC(=O)c1nnsc1N/N=C/c1ccc([N+](=O)[O-])cc1
88.6 µM: [18]
not listed: [24] | [25]
> 100 µM: all other assays above

Reference: PubChem BioAssay (NCI)
